# Test results from DBAASP.
# Key:
# Assay in all cases: ≥ marks a high value that may be exact or a test limit, other limits are often not marked, values filed in µg/mL are converted to µM
# [1] = system: Staphylococcus aureus NCTC 8325
# [2] = system: Bacillus subtilis ATCC 6633
# [3] = system: Escherichia coli ATCC 25922
# [4] = system: Klebsiella pneumoniae ATCC 700603
# [5] = system: Pseudomonas aeruginosa ATCC 27853
# [6] = system: Staphylococcus aureus ATCC 25923
# [7] = system: Staphylococcus epidermidis ATCC 12228
# [8] = system: Candida albicans ATCC 90028
# Escherichia coli UB1005 = system: Escherichia coli UB1005
# [9] = system: Salmonella enterica subsp. enterica serovar Typhimurium ATCC 14028
# [10] = system: Salmonella enterica subsp. enterica serovar Typhimurium C77-31
# [11] = system: Staphylococcus aureus ATCC 29213
# [12] = system: Staphylococcus aureus ATCC 43300
# Candida albicans = system: Candida albicans
# Escherichia coli = system: Escherichia coli
# Staphylococcus aureus = system: Staphylococcus aureus
# [13] = system: Bacillus subtilis KCTC 3068
# [14] = system: Escherichia coli KCTC 1682
# [15] = system: Pseudomonas aeruginosa KCTC 1637
# [16] = system: Salmonella typhimurium KCTC 1926
# [17] = system: Staphylococcus aureus KCTC 1621
# [18] = system: Staphylococcus epidermidis KCTC 1917
smiles,measurement,setting,value
CC[C@H](C)[C@H](NC(=O)[C@@H](NC(=O)[C@@H]1CCCN1C(=O)[C@H](CC(C)C)NC(=O)[C@@H](NC(=O)[C@@H](N)CO)[C@@H](C)CC)[C@@H](C)O)C(=O)N[C@H](C(=O)N[C@@H](CO)C(=O)N[C@@H](Cc1ccccc1)C(=O)N[C@@H](CC(C)C)C(=O)N[C@H](C(=O)N[C@@H](CCCCN)C(=O)N[C@@H](Cc1ccccc1)C(=O)N[C@@H](CC(C)C)C(N)=O)[C@@H](C)O)C(C)C [SILPTIVSFLTKFL],MIC,[1],25 µM
CC(=O)N[C@@H](Cc1ccccc1)C(=O)N[C@@H](CCCCN)C(=O)N[C@@H](CC(C)C)C(=O)N[C@@H](CCCCN)C(=O)N[C@@H](CC(C)C)C(=O)N[C@@H](CCCCN)C(=O)N[C@@H](Cc1ccccc1)C(=O)N[C@@H](CO)C(=O)N[C@@H](CC(N)=O)C(=O)N[C@@H](CCCCN)C(=O)N[C@@H](CC(C)C)C(=O)N[C@@H](CCCCN)C(=O)N[C@@H](Cc1c[nH]c2ccccc12)C(=O)N[C@@H](CCCCN)C(=O)N[C@@H](Cc1c[nH]c2ccccc12)C(N)=O [FKLKLKFSNKLKWKW],MIC,[2],3.2 µM
same,MIC,[3],12.5 µM
same,MIC,[4],25 µM
same,MIC,[5],12.5 µM
same,MIC,[6],25 µM
same,MIC,[7],12.5 µM
CC[C@H](C)[C@@H]1NC(=O)[C@H](CC(C)C)NC(=O)[C@@H](NC(=O)[C@H](CC(C)C)NC(=O)[C@H](CC(C)C)NC(=O)[C@H](CCCCN)NC(=O)[C@@H]2CCCN2C(=O)CNC(=O)[C@H](CC(C)C)NC(=O)[C@@H](NC(=O)[C@H](C)NC(=O)[C@H](C)NC(=O)[C@H](CC(C)C)NC(=O)[C@H](CO)NC(=O)[C@H](C)NC(=O)[C@H](CC(C)C)NC(=O)[C@@H](NC(=O)[C@@H]2CCCN2C(=O)[C@H](CC(C)C)NC(=O)[C@@H](N)Cc2ccccc2)[C@@H](C)CC)[C@@H](C)O)CSSC[C@@H](C(=O)O)NC(=O)[C@H](CCCCN)NC(=O)[C@H](CCCCN)NC(=O)[C@H]([C@@H](C)O)NC1=O [FLPILASLAATLGPKLLCLITKKC],MIC,[8],≥ 35 µM
same,MIC,[1],8 µM
CC[C@H](C)[C@@H]1NC(=O)[C@H](C)NC(=O)[C@@H](NC(=O)[C@H](Cc2ccccc2)NC(=O)[C@@H](NC(=O)[C@H](CCCCN)NC(=O)[C@@H]2CCCN2C(=O)[C@H](CC(C)C)NC(=O)[C@H](Cc2ccccc2)NC(=O)[C@H](CCCCN)NC(=O)[C@H](C)NC(=O)[C@H](C)NC(=O)[C@@H](NC(=O)CNC(=O)[C@H](C)NC(=O)[C@@H](NC(=O)[C@H](Cc2ccccc2)NC(=O)[C@@H]2CCCN2C(=O)[C@H](CC(C)C)NC(=O)[C@@H](N)Cc2ccccc2)[C@@H](C)CC)C(C)C)[C@@H](C)CC)CSSC[C@@H](C(=O)O)NC(=O)[C@H](CCCCN)NC(=O)[C@H](CCCCN)NC(=O)[C@H](CO)NC1=O [FLPFIAGVAAKFLPKIFCAISKKC],MIC,[1],13 µM
CC[C@H](C)[C@H](NC(=O)[C@H](CCCCN)NC(=O)[C@@H]1CCCN1C(=O)[C@H](CC(C)C)NC(=O)[C@H](Cc1ccccc1)NC(=O)[C@H](CC(N)=O)NC(=O)[C@H](C)NC(=O)[C@H](C)NC(=O)[C@H](CC(C)C)NC(=O)CNC(=O)[C@H](C)NC(=O)[C@H](CC(C)C)NC(=O)[C@H](CC(C)C)NC(=O)[C@@H]1CCCN1C(=O)[C@H](CC(C)C)NC(=O)[C@@H](N)Cc1ccccc1)C(=O)N[C@@H](Cc1ccccc1)C(=O)N[C@H]1CSSC[C@@H](C(=O)O)NC(=O)[C@H](CCCCN)NC(=O)[C@H](CCCCN)NC(=O)[C@H]([C@@H](C)O)NC(=O)[C@H]([C@@H](C)CC)NC(=O)[C@H](CCCCN)NC1=O [FLPLLAGLAANFLPKIFCKITKKC],MIC,[3],25 µM
same,MIC,[1],12.5 µM
CC[C@H](C)[C@H](N)C(=O)N[C@@H](CCCN=C(N)N)C(=O)N1CCC[C@H]1C(=O)N[C@H](C(=O)N[C@@H](CCCN=C(N)N)C(=O)N1CCC[C@H]1C(=O)O)[C@@H](C)CC [IRPIRP],MIC,[3],> 128 µM
same,MIC,Escherichia coli UB1005,≥ 128 µM
same,MIC,[5],> 128 µM
same,MIC,[9],> 128 µM
same,MIC,[10],≥ 128 µM
same,MIC,[6],> 128 µM
same,MIC,[11],> 128 µM
same,MIC,[12],> 128 µM
same,MIC,[7],> 128 µM
CC[C@H](C)[C@H](NC(=O)[C@H](CCCCN)NC(=O)[C@H](CS)NC(=O)[C@H](C)NC(=O)[C@@H](NC(=O)[C@H](Cc1ccccc1)NC(=O)[C@H](CCC(=O)O)NC(=O)[C@H](CC(C)C)NC(=O)[C@H](CCC(=O)O)NC(=O)[C@@H](NC(=O)[C@H](CCCCN)NC(=O)[C@H](CCC(=O)O)NC(=O)[C@H](CC(C)C)NC(=O)[C@H](CC(N)=O)NC(=O)[C@H](CCCCN)NC(=O)[C@H](CC(C)C)NC(=O)[C@@H](NC(=O)[C@H](CO)NC(=O)[C@H](CC(C)C)NC(=O)[C@H](CCSC)NC(=O)[C@@H](N)CO)C(C)C)C(C)C)C(C)C)C(=O)N[C@@H](CC(N)=O)C(=O)N[C@@H](CCCCN)C(=O)N[C@@H](CCC(N)=O)C(=O)N[C@@H](CS)C(=O)O [SMLSVLKNLEKVELEFVACKINKQC],MIC,Candida albicans,> 200 µM
same,MIC,Escherichia coli,> 200 µM
same,MIC,Staphylococcus aureus,> 200 µM
CC[C@H](C)[C@H](NC(=O)[C@H](CCCN=C(N)N)NC(=O)[C@H](CCCN=C(N)N)NC(=O)[C@@H](NC(=O)[C@@H](NC(=O)[C@H](CCCN=C(N)N)NC(=O)[C@H](CCCCN)NC(=O)[C@@H](N)Cc1c[nH]c2ccccc12)[C@@H](C)CC)C(C)C)C(=O)N[C@@H](Cc1c[nH]c2ccccc12)C(=O)N[C@@H](CCCN=C(N)N)C(=O)N[C@@H](Cc1c[nH]c2ccccc12)C(=O)N[C@@H](CC(C)C)C(=O)N[C@@H](CCCN=C(N)N)C(N)=O [WKRIVRRIWRWLR],MIC,[13],2 µM
same,MIC,[14],8 µM
same,MIC,[15],16 µM
same,MIC,[16],4 µM
same,MIC,[17],2 µM
same,MIC,[18],8 µM
CC[C@H](C)[C@H](NC(=O)[C@H](CCCN=C(N)N)NC(=O)CN)C(=O)N[C@@H](CCCCN)C(=O)N[C@@H](CCCN=C(N)N)C(=O)N[C@H](C(=O)N[C@@H](CCCN=C(N)N)C(=O)N[C@@H](CCCCN)C(=O)N[C@@H](CCCCN)C(=O)N[C@H](C(=O)N[C@@H](CCCCN)C(=O)N[C@@H](CCCCN)C(=O)N[C@@H](CC(C)C)C(=O)N[C@H](C(=O)N[C@@H](CCCCN)C(=O)N[C@@H](CCCCN)C(=O)N[C@@H](CC(C)C)C(=O)N[C@@H](CO)C(N)=O)[C@@H](C)CC)[C@@H](C)CC)[C@@H](C)CC [GRIKRIRKKIKKLIKKLS],MIC,[13],4 µM
same,MIC,[14],4 µM
same,MIC,[15],4 µM
same,MIC,[16],2 µM
same,MIC,[17],4 µM
same,MIC,[18],8 µM
CC[C@H](C)[C@H](NC(=O)CNC(=O)[C@H](C)NC(=O)[C@@H](NC(=O)[C@H](CC(=O)O)NC(=O)[C@H](CCCCN)NC(=O)[C@H](C)NC(=O)[C@H](C)NC(=O)CNC(=O)[C@H](CCCCN)NC(=O)[C@H](CC(C)C)NC(=O)[C@@H](NC(=O)[C@H](CC(=O)O)NC(=O)[C@H](CC(C)C)NC(=O)[C@H](CC(C)C)NC(=O)[C@H](CC(C)C)NC(=O)CN)[C@@H](C)O)[C@@H](C)CC)C(=O)N[C@@H](C)C(=O)N[C@@H](CC(C)C)C(=O)N[C@@H](CCC(=O)O)C(=O)N[C@@H](CCCCN)C(=O)N[C@@H](CC(C)C)C(=O)N[C@@H](CCCCN)C(=O)N[C@H]1CSSC[C@@H](C(=O)N[C@@H](CCCCN)C(=O)N2CCC[C@H]2C(=O)O)NC(=O)CNC(=O)[C@H]([C@@H](C)O)NC(=O)[C@H]([C@@H](C)CC)NC(=O)[C@H](CCCCN)NC1=O [GLLLDTLKGAAKDIAGIALEKLKCKITGCKP],MIC,[3],19 µM
same,MIC,[1],≥ 150 µM
